# Read-outs that look alike come from different tables or passages of the source.
# What was measured:
# [1] = Formation constants of mixed-ligand half-sandwich complexes (UV-vis and 1H NMR); type: physicochemical; conditions: for Formation constant logK of mixed-ligand complex: aqua complex + monodentate ligand, I = 0.10 M (KCl), t = 25.0 °C, UV-vis and 1H NMR; for formation of the mixed-ligand complex: under the applied conditions, 1H NMR, limit of detection 5%
# Procedure: NMR spectroscopic studies were carried out on a Bruker Avance III HD Ascend 500 Plus instrument. For the aqueous samples, ^1H NMR spectra were recorded with the WATERGATE water suppression pulse scheme using DSS internal standard. The highest peak of DSS was 0.00 ppm. The measurement was very similar to the UV-vis measurement since the complex–to–monodentate ligand ratio was also between 0–10 equivalents; the spectra were recorded after the given waiting time. […] This technique was useful in those cases where no spectral change was visible during the UV-vis titrations.
# In both measurement methods, the formation constant (K) was obtained using the computer program PSEQUAD [38].
# It is worthwhile to mention that the liberation of the bidentate ligand was not detected even at higher monodentate ligand excess (~10), which means that the disruption of the bond between the bidentate ligand and the metal center is not feasible under these conditions. The calculated formation constants are compared in Figure 5 and are collected in Table S2. The formation of the mixed-ligand complexes was not detected in three cases under the applied conditions, namely [Ru(p-cym)(en)(mim)]^2+, [Ru(p-cym)(phen)(mim)]^2+, and [Ru(p-cym)(en)(Py)]^2+. For these complexes, only a higher limit of the formation constant could be given, assuming that a maximum of 5% of the complex would form (limit of detection) under the conditions used for ^1H NMR spectroscopy. Based on Figure 5, the following trends are observed in the formation constants: (i) [RhCp*(en)(H2O)]^2+ and [RhCp*(phen)(H2O)]^2+ have a stronger monodentate ligand-binding ability than the Ru(p-cym) analogs; (ii) the formation constants of the [Ru(p-cym)(8HQH-1)(N)]^+ complexes are similar or somewhat higher than those of the RhCp* analogs; (iii) a stability trend for the monodentate ligand: mim > bim > Py (iv) and the bidentate ligand: 8HQH-1 > phen ≥ en can be seen.
# [2] = test system: E. coli ATCC 25922 (sensitive); experiment: Antibacterial assay, MIC in 96-well plates at different pH; type: cell-based
# Excerpt: (§1) The antibacterial effect was studied in two Gram-positive and in two Gram-negative strains. The Gram-positive S. aureus ATCC 25923 (ATCC, Manassas, VA, USA) is a methicillin-susceptible reference bacterial strain, while S. aureus 272123 is a clinical isolate and resistant to methicillin and ofloxacin (MRSA), which was given by Prof. Dr. Leonard Amaral (Institute of Hygiene and Tropical Medicine, Lisbon, Portugal). The Gram-negative strains were E. coli ATCC 25922 (ATCC, Manassas, VA, USA), which is sensitive to antibiotics, and E. coli 32313 (provided by the Institute of Clinical Microbiology, University of Szeged, Hungary), which is resistant to different antibiotics (trimethoprim/sulfamethoxazole, gentamicin, ciprofloxacin, and norfloxacin).
# (§2) The minimum inhibitory concentrations (MICs) of the compounds were determined in 96-well plates based on the Clinical and Laboratory Standard Institute guidelines. The compounds were diluted in 100 μL of Mueller Hinton broth. Then, an overnight bacterial culture diluted 10,000 times in 100 μL of medium was added to each well, with the exception of the medium control wells. For each strain and each tested compound, four pH values were set (5, 6, 7, and 8). Each sample was triplicated.
# S. aureus 272123 (MRSA) = experiment: as above; type: cell-based
# Excerpt: as §1, §2
# [3] = test system: S. aureus ATCC 25923 (methicillin-susceptible); experiment: as above; type: cell-based
# Excerpt: as §1, §2
# [4] = test system: E. coli 32313 (resistant); experiment: as above; type: cell-based
# Excerpt: as §1, §2
# [5] = test system: Colo320 human colon adenocarcinoma cell line (doxorubicin-resistant); experiment: MTT assay, cytotoxicity at pH 6 and 7; type: cell-based
# Procedure: (§3) All cell culture reagents were obtained from Sigma-Aldrich (Merck KGaA, Darmstadt, Germany) and plasticware from Sarstedt (Nümbrecht, Germany). Human colonic adenocarcinoma cell lines Colo205 (catalog number: ATCC-CCL-222) and its doxorubicin-resistant counterpart Colo320 (catalog number: ATCC-CCL-220.1) were purchased from LGC Promochem (Teddington, UK). The cells were cultured in RPMI 1640 medium supplemented with 10% heat-inactivated fetal bovine serum, 2 mM L-glutamine, 1 mM sodium pyruvate, and 100 mM HEPES buffer, adjusting the pH to 6.0 or 7.0. The cells were incubated at 37 °C in a 5% CO2–95% air atmosphere. The semiadherent human colon cancer cells were detached with Trypsin-Versene solution for 5 min at 37 °C.
# (§4) The solutions were freshly prepared prior to measurements (see Section 2.1). […] Firstly, these samples were diluted in complete culture medium; then, two-fold serial dilutions of the compounds were prepared in 100 μL of RPMI 1640, horizontally. The semiadherent colonic adenocarcinoma cells were treated with Trypsin-Versene solution. They were adjusted to a density of 1 × 10^4 cells in 100 μL of RPMI 1640 medium and were added to each well, with the exception of the medium control wells. The final volume of the wells containing compounds and cells was 200 μL. Samples were triplicated. The pH of the medium was adjusted to 6.0 or 7.0.
# (§5) The culture plates were incubated at 37 °C for 72 h; at the end of the incubation period, 20 μL of MTT solution (from a stock solution of 5 mg/mL) was added to each well. After incubation at 37 °C for 4 h, 100 μL of SDS solution (10% in 0.01 M HCI) was added to each well, and the plates were further incubated at 37 °C overnight. Cell growth was determined by measuring the optical density (OD) at 540/630 nm with a Multiscan EX ELISA reader (Thermo Labsystems, Cheshire, WA, USA). […] Curves were fitted using GraphPad Prism software (2022, version 9.4.1, Graphpad Software (LLC) d.b.a Dotmatics, San Diego, CA, USA) using the sigmoidal dose–response model (comparing variable and fixed slopes).
# (§6) The pH-dependent solution speciation of the selected mixed-ligand complexes is an important feature in the hypothesized mechanism of action, and the modeling of acidosis is necessary for the in vitro anticancer assays. In order to find out the cytotoxicity difference based on the pH of the medium, cytotoxic activity was determined at pH 6 and 7 by MTT assay in two human colon adenocarcinoma cell lines (doxorubicin-sensitive Colo205 and doxorubicin-resistant Colo320). […] The mixed-ligand complexes were prepared prior to the measurements, as was already described in Section 2.1. With this method, the effect of the different counter ions could be avoided, and a more adequate comparison of the mixed-ligand complexes could be conducted.
# [6] = test system: Colo205 human colon adenocarcinoma cell line (doxorubicin-sensitive); experiment: MTT assay, cytotoxicity at pH 6 and 7; type: cell-based
# Procedure: as §3, §4, §5, §6
# [7] = E. coli sensitive, pH 5, after one day, read-out: MIC
# [8] = E. coli sensitive, pH 8, after one day, read-out: MIC
# [9] = pH 5, after one day, read-out: MIC
# [10] = pH 8, after one day, read-out: MIC
# [11] = S. aureus sensitive, pH 8, after one day, read-out: MIC
# [12] = E. coli resistant, pH 5, after one day, read-out: MIC
# [13] = E. coli resistant, pH 8, after one day, read-out: MIC
smiles,measurement,setting,value
Cc1ccc(C(C)C)cc1.[Ru+][O]c1cccc2cccnc12.c1ccncc1 [[RuCym(8HQH-1)(H2O)]+ + Py],Formation constant logK of mixed-ligand complex,[1],1.6 ± 0.2
Cc1ccc(C(C)C)cc1.NCCN.[Ru+2].c1ccncc1 [[Ru(p-cym)(en)(Py)]^2+],Formation constant logK of mixed-ligand complex,[1],< 1.5
same,formation of the mixed-ligand complex,[1],not detected
Cc1ccc(C(C)C)cc1.[Ru+][O]c1cccc2cccnc12.c1ccc2[nH]cnc2c1 [[RuCym(8HQH-1)(H2O)]+ + bim],Formation constant logK of mixed-ligand complex,[1],2.9 ± 0.1
Cc1ccc(C(C)C)cc1.Cn1ccnc1.[Ru+2].c1cnc2c(c1)ccc1cccnc12 [[Ru(p-cym)(phen)(mim)]^2+],formation of the mixed-ligand complex,[1],not detected
Cc1c(C)c(C)[c-](C)c1C.NCCN.[Rh+3].c1ccc2[nH]cnc2c1 [[RhCp*(en)(H2O)]2+ + bim],Formation constant logK of mixed-ligand complex,[1],3.3 ± 0.2
Cc1c(C)c(C)[c-](C)c1C.[Rh+3].c1ccc2[nH]cnc2c1.c1cnc2c(c1)ccc1cccnc12 [[RhCp*(phen)(bim)]^2+],Formation constant logK of mixed-ligand complex,[1],4.9 ± 0.2
Cc1ccc(C(C)C)cc1.NCCN.[Ru+2].c1ccc2[nH]cnc2c1 [[RuCym(en)(H2O)]2+ + bim],Formation constant logK of mixed-ligand complex,[1],3.5 ± 0.1
Cc1c(C)c(C)[c-](C)c1C.[Rh+3].c1ccncc1.c1cnc2c(c1)ccc1cccnc12 [[RhCp*(phen)(Py)]^2+],MIC,[2]; [7],> 100 µM
same,MIC,"[2]; E. coli sensitive, pH 6, after one day, listed as [RhCp*(phen)Cl]Cl +Py, read-out: MIC",>100 µM
same,MIC,"[2]; E. coli sensitive, pH 7, after one day, listed as [RhCp*(phen)Cl]Cl +Py, read-out: MIC",>100 µM
same,MIC,[2]; [8],> 100 µM
same,MIC,S. aureus 272123 (MRSA); [9],> 100 µM
same,MIC,"S. aureus 272123 (MRSA); pH 6, after one day, listed as [RhCp*(phen)Cl]Cl +Py, read-out: MIC",>100 µM
same,MIC,"S. aureus 272123 (MRSA); pH 7, after one day, listed as [RhCp*(phen)Cl]Cl +Py, read-out: MIC",>100 µM
same,MIC,S. aureus 272123 (MRSA); [10],> 100 µM
same,MIC,"[3]; S. aureus sensitive, pH 7, after one day, listed as [RhCp*(phen)Cl]Cl +Py, read-out: MIC",>100 µM
same,MIC,[3]; [11],> 100 µM
same,MIC,[4]; [12],> 100 µM
same,MIC,"[4]; E. coli resistant, pH 6, after one day, listed as [RhCp*(phen)Cl]Cl +Py, read-out: MIC",>100 µM
same,MIC,"[4]; E. coli resistant, pH 7, after one day, listed as [RhCp*(phen)Cl]Cl +Py, read-out: MIC",>100 µM
same,MIC,[4]; [13],> 100 µM
same,Formation constant logK of mixed-ligand complex,[1],4.1 ± 0.1
Cc1ccc(C(C)C)cc1.Cn1ccnc1.NCCN.[Ru+2] [[Ru(p-cym)(en)(mim)]^2+],formation of the mixed-ligand complex,[1],not detected
Cc1c(C)c(C)[c-](C)c1C.[Cl][Rh+][O]c1cccc2cccnc12 [[RhCp*(8HQH−1)Cl]],MIC,[2]; [7],> 100 µM
same,MIC,"[2]; E. coli sensitive, pH 6, after one day, read-out: MIC",>100 µM
same,MIC,"[2]; E. coli sensitive, pH 7, after one day, read-out: MIC",>100 µM
same,MIC,[2]; [8],> 100 µM
same,MIC,S. aureus 272123 (MRSA); [9],50 µM
same,MIC,"S. aureus 272123 (MRSA); pH 6, after one day, read-out: MIC",12.5 µM
same,MIC,"S. aureus 272123 (MRSA); pH 7, after one day, read-out: MIC",12.5 µM
same,MIC,S. aureus 272123 (MRSA); [10],12.5 µM
same,MIC,"[3]; S. aureus sensitive, pH 7, after one day, read-out: MIC",12.5 µM
same,MIC,[3]; [11],12.5 µM
same,MIC,[4]; [12],> 100 µM
same,MIC,"[4]; E. coli resistant, pH 6, after one day, read-out: MIC",>100 µM
same,MIC,"[4]; E. coli resistant, pH 7, after one day, read-out: MIC",>100 µM
same,MIC,[4]; [13],> 100 µM
same,IC50,"[5]; Colo320, pH 6, 72 h incubation, read-out: IC50",6.1 ± 0.2 µM
same,IC50,"[5]; Colo320, pH 7, 72 h incubation, read-out: IC50",3.3 ± 0.1 µM
same,IC50,"[6]; Colo205, pH 6, 72 h incubation, read-out: IC50",8.1 ± 0.5 µM
same,IC50,"[6]; Colo205, pH 7, 72 h incubation, read-out: IC50",8.8 ± 0.4 µM
Cc1c(C)c(C)[c-](C)c1C.[Rh+2][O]c1cccc2cccnc12.c1ccc2[nH]cnc2c1 [[RhCp*(8HQH-1)(H2O)]+ + bim],Formation constant logK of mixed-ligand complex,[1],3.4 ± 0.1
"c1ccncc1 [Py, pyridine, reference compound]",MIC,"[2]; Escherichia coli, ATCC25922, 24 h, pH 5",> 100 µM
same,MIC,"[2]; Escherichia coli, ATCC25922, 24 h, pH 6",> 100 µM
same,MIC,"[2]; Escherichia coli, ATCC25922, 24 h, pH 7",> 100 µM
same,MIC,"[2]; Escherichia coli, ATCC25922, 24 h, pH 8",> 100 µM
same,MIC,"[2]; Escherichia coli, ATCC25922, read-out: MIC (no antibacterial effect)",> 100 µM
same,MIC,"S. aureus 272123 (MRSA); Staphylococcus aureus, 24 h, pH 5",> 100 µM
same,MIC,"S. aureus 272123 (MRSA); Staphylococcus aureus, 24 h, pH 6",> 100 µM
same,MIC,"S. aureus 272123 (MRSA); Staphylococcus aureus, 24 h, pH 7",> 100 µM
same,MIC,"S. aureus 272123 (MRSA); Staphylococcus aureus, 24 h, pH 8",> 100 µM
same,MIC,"S. aureus 272123 (MRSA); Staphylococcus aureus, read-out: MIC (no antibacterial effect)",> 100 µM
same,MIC,"[3]; Staphylococcus aureus, ATCC25923, 24 h, pH 7",> 100 µM
same,MIC,"[3]; Staphylococcus aureus, ATCC25923, 24 h, pH 8",> 100 µM
same,MIC,"[3]; Staphylococcus aureus, ATCC25923, read-out: MIC (no antibacterial effect)",> 100 µM
same,MIC,"[4]; Escherichia coli, 24 h, pH 5",> 100 µM
same,MIC,"[4]; Escherichia coli, 24 h, pH 6",> 100 µM
same,MIC,"[4]; Escherichia coli, 24 h, pH 7",> 100 µM
same,MIC,"[4]; Escherichia coli, 24 h, pH 8",> 100 µM
same,MIC,"[4]; Escherichia coli, read-out: MIC (no antibacterial effect)",> 100 µM
same,IC50,"[5]; Homo sapiens, COLO 320, 72 h, pH 6",> 100 µM
same,IC50,"[5]; Homo sapiens, COLO 320, 72 h, pH 7",> 100 µM
same,IC50,"[6]; Homo sapiens, COLO 205, 72 h, pH 6",> 100 µM
same,IC50,"[6]; Homo sapiens, COLO 205, 72 h, pH 7",> 100 µM
